Laboratory results: PubChem BioAssay AID330 (DTP/NCI, 2004)
“And” between values parts separate entries of the source, which are not always exact repeats. Equal values may be shown once. Inconclusive results and toxic doses are left out. The calls were made as follows: active = survival T/C of 150% or more; inactive = T/C below 125% in these data.

Test system: P388 leukemia ip, CD2F1 mice, survival T/C
Test: NCI In Vivo Anticancer Drug Screen. Data for tumor model P388 Leukemia (intraperitoneal) in CD2F1 (CDF1) mice
Settings: endpoint: median survival time, higher = longer survival
Summary of the method: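 Mice carrying the transplanted tumor received test compound or vehicle. Survival was recorded in each group, and the value is the treated-group measurement divided by that of the vehicle-treated control group.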

[1] = dose: 50.0 mg/kg/injection, schedule: Q01DX009 (ip), vehicle: saline with Tween-80
[2] = dose: 100.0 mg/kg/injection, schedule: Q01DX009 (ip), vehicle: saline with Tween-80
[3] = dose: 200.0 mg/kg/injection, schedule: Q01DX009 (ip), vehicle: saline with Tween-80
[4] = dose: 12.5 mg/kg/injection, schedule: Q01DX005 (ip), vehicle: saline with Tween-80
[5] = dose: 25.0 mg/kg/injection, schedule: Q01DX005 (ip), vehicle: saline with Tween-80
[6] = dose: 50.0 mg/kg/injection, schedule: Q01DX005 (ip), vehicle: saline with Tween-80

Measured: T/C

CCN(CC)CCC(=O)Nc1cccc2c1C(=O)c1c(c(O)c3ccccc3c1O)C2=O
inactive: dose: 6.25 mg/kg/injection, schedule: Q04DX003 (ip), vehicle: Klucel (hydroxypropylcellulose) (HPC) 100 % of control | dose: 12.5 mg/kg/injection, schedule: Q04DX003 (ip), vehicle: Klucel (hydroxypropylcellulose) (HPC) 100 % of control | dose: 25.0 mg/kg/injection, schedule: Q04DX003 (ip), vehicle: Klucel (hydroxypropylcellulose) (HPC) 104 % of control | dose: 25.0 mg/kg/injection, schedule: Q04DX003 (ip), vehicle: saline 98 % of control | dose: 50.0 mg/kg/injection, schedule: Q04DX003 (ip), vehicle: Klucel (hydroxypropylcellulose) (HPC) 100 % of control | dose: 50.0 mg/kg/injection, schedule: Q04DX003 (ip), vehicle: saline 92 % of control | dose: 100.0 mg/kg/injection, schedule: Q04DX003 (ip), vehicle: Klucel (hydroxypropylcellulose) (HPC) 106 % of control | dose: 100.0 mg/kg/injection, schedule: Q04DX003 (ip), vehicle: saline 108 % of control | dose: 200.0 mg/kg/injection, schedule: Q04DX003 (ip), vehicle: saline 100 % of control

COc1ccccc1C1(O)c2ccccc2C(=O)c2ccccc21
inactive: dose: 50.0 mg/kg/injection, schedule: Q01DX005 (ip), vehicle: Klucel (hydroxypropylcellulose) (HPC) 101 % of control | dose: 100.0 mg/kg/injection, schedule: Q01DX005 (ip), vehicle: Klucel (hydroxypropylcellulose) (HPC) 99 % of control | dose: 200.0 mg/kg/injection, schedule: Q01DX005 (ip), vehicle: Klucel (hydroxypropylcellulose) (HPC) 103 % of control

O=C1/C(=C/N2CCN(c3ccccc3)CC2)Cc2c(Cl)cccc21
inactive: dose: 100.0 mg/kg/injection, schedule: Q04DX002 (ip), vehicle: Klucel (hydroxypropylcellulose) (HPC) 105 % of control | dose: 200.0 mg/kg/injection, schedule: Q04DX002 (ip), vehicle: Klucel (hydroxypropylcellulose) (HPC) 114 % of control | dose: 400.0 mg/kg/injection, schedule: Q04DX002 (ip), vehicle: Klucel (hydroxypropylcellulose) (HPC) 102 % of control

Cc1ccc(C)c(NC(=O)Nc2ccccc2C(N)=O)c1
inactive: dose: 50.0 mg/kg/injection, schedule: Q01DX009 (ip), vehicle: Klucel (hydroxypropylcellulose) (HPC) 91 % of control | dose: 100.0 mg/kg/injection, schedule: Q01DX009 (ip), vehicle: Klucel (hydroxypropylcellulose) (HPC) 113 % of control | dose: 200.0 mg/kg/injection, schedule: Q01DX009 (ip), vehicle: Klucel (hydroxypropylcellulose) (HPC) 104 % of control

CCCCCCCCCSCC
inactive: [1] 100 % of control | [2] 109 % of control | dose: 100.0 mg/kg/injection, schedule: Q04DX003 (ip), vehicle: saline with Tween-80 109 % of control | [3] 109 % of control | dose: 200.0 mg/kg/injection, schedule: Q04DX003 (ip), vehicle: saline with Tween-80 100 % of control | dose: 400.0 mg/kg/injection, schedule: Q04DX003 (ip), vehicle: saline with Tween-80 86 % of control

O=C(O)Cc1c[nH]c2cc(Cl)ccc12
inactive: [1] 100 % of control | [2] 102 % of control | [3] 105 % of control

CCOC1(OCC)N(S(=O)(=O)c2ccc(C)cc2)C(=O)C(=O)N1S(=O)(=O)c1ccc(C)cc1
inactive: dose: 100.0 mg/kg/injection, schedule: Q04DX002 (ip), vehicle: saline 100 % of control | dose: 200.0 mg/kg/injection, schedule: Q04DX002 (ip), vehicle: saline 106 % of control | dose: 400.0 mg/kg/injection, schedule: Q04DX002 (ip), vehicle: saline 103 % of control

COc1c2c(c(Cc3c4c(c(OC)c5c3OCO5)OC(C)C4)c3c1OCO3)CC(C)O2 (centres undefined)
inactive: [4] 96 % of control | [5] 94 % of control | [6] 89 % of control and 95 % of control

CCCCCCCCCCN(CCCCCCCCCC)CC(O)c1ccc2nc3c(cc2c1)CCCC3 (centres undefined)
inactive: [4] 101 % of control | [5] 101 % of control | [6] 102 % of control and 94 % of control

O=[N+]([O-])c1ccccc1S(=O)(=O)N(CCCCCN(S(=O)(=O)c1ccccc1[N+](=O)[O-])S(=O)(=O)c1ccccc1[N+](=O)[O-])S(=O)(=O)c1ccccc1[N+](=O)[O-]
inactive: dose: 60.0 mg/kg/injection, schedule: Q01DX005 (ip), vehicle: Klucel (hydroxypropylcellulose) (HPC) 89 % of control | dose: 120.0 mg/kg/injection, schedule: Q01DX005 (ip), vehicle: Klucel (hydroxypropylcellulose) (HPC) 87 % of control | dose: 240.0 mg/kg/injection, schedule: Q01DX005 (ip), vehicle: Klucel (hydroxypropylcellulose) (HPC) 87 % of control
